Data on 18 molecules can be found in patent publication US11542297B2, “Compositions and methods for treating CNS disorders” (Sage Therapeutics, Inc., priority 2014, dated 2023).

A value given as a limit tells only on which side of the number the result lay.

One assay concerns the target rat brain cortical membranes ([35S]-TBPS binding, GABA receptor complex). As to the kind of experiment: Steroid inhibition of [35S]-TBPS binding. Particulars: in the presence of 5 μM GABA, read-out: 35S-TBPS Radioligand Displacement (IC50). Here is the method: TBPS binding assays using rat brain cortical membranes in the presence of 5 μM GABA has been described (Gee et al, J. Pharmacol. Exp. Ther. 1987, 241, 346-353; Hawkinson et al, Mol. Pharmacol. 1994, 46, 977-985; Lewin, A. H et al., Mol. Pharmacol. 1989, 35, 189-194).
Briefly, cortices are rapidly removed following decapitation of carbon dioxide-anesthetized Sprague-Dawley rats (200-250 g). The cortices are homogenized in 10 volumes of […] using a glass/teflon homogenizer and centrifuged at 1500×g for 10 min at 4° C. The resultant supernatants are centrifuged at 10,000×g for 20 min at 4° C. to obtain the P2 pellets. The P2 pellets are resuspended in 200 mM NaCl/50 mM Na—K phosphate pH 7.4 buffer and centrifuged at 10,000×g for 10 min at 4° C. This washing procedure is repeated twice and the pellets are resuspended in 10 volumes of buffer. Aliquots (100 μL) of the membrane suspensions are incubated with 3 nM [^35S]-TBPS and 5 μL aliquots of test drug dissolved in dimethyl sulfoxide (DMSO) (final 0.5%) in the presence of 5 μM GABA. The incubation is brought to a final volume of 1.0 mL with buffer. […] Following a 90 min incubation at room temp, the assays are terminated by filtration through glass fiber filters (Schleicher and Schuell No. 32) using a cell harvester (Brandel) and rinsed three times with ice-cold buffer. Filter bound radioactivity is measured by liquid scintillation spectrometry. Non-linear curve fitting of the overall data for each drug averaged for each concentration is done using Prism (GraphPad).
Various compounds are or can be screened to determine their potential as modulators of [^35S]-TBPS binding in vitro. These assays are or can be performed in accordance with the above discussed procedures.
On the technique in general: Loss of bound radioactivity is the signal in a displacement assay; it reports binding, not function.
By IC50 is commonly meant the concentration that inhibits the measured activity by half. Regarding `C[C@@]1(O)CC[C@@]2(C)[C@H](CC[C@@H]3[C@@H]2CC[C@]2(C)[C@@H](C(=O)Cn4cc(C#N)cn4)CC[C@@H]32)C1` [Compound 10, 1-(2-((3R,5R,8R,9S,10S,13S,14S,17S)-3-hydroxy-3,10,13-trimethylhexadecahydro-1H-cyclopenta[a]phenanthren-17-yl)-2-oxoethyl)-1H-pyrazole-4-carbonitrile], the IC50 was below 10 nM. `C[C@H](C(=O)[C@H]1CC[C@H]2[C@@H]3CC[C@@H]4C[C@](C)(O)CC[C@]4(C)[C@H]3CC[C@]12C)n1nccn1` [Compound 56, (R)-1-((3R,5R,8R,9S,10S,13S,14S,17S)-3-hydroxyl-3,10,13-trimethylhexadecahydro-1H-cyclopenta[a]phenanthren-17-yl)-2-(2H-1,2,3-triazol-2-yl)propan-1-one]: the half-inhibitory concentration (IC50) fell in the range of 50 to 100 nM. On the same count and under the same terms, to `C[C@H](C(=O)[C@H]1CC[C@H]2[C@@H]3CC[C@@H]4C[C@](C)(O)CC[C@]4(C)[C@H]3CC[C@]12C)n1ccnn1` [Compound 58, (R)-1-((3R,5R,8R,9S,10S,13S,14S,17S)-3-hydroxy-3,10,13-trimethylhexadecahydro-1H-cyclopenta[a]phenanthren-17-yl)-2-(1H-1,2,3-triazol-1-yl)propan-1-one] belongs above 500 nM; to `C[C@@H](C(=O)[C@H]1CC[C@H]2[C@@H]3CC[C@@H]4C[C@](C)(O)CC[C@]4(C)[C@H]3CC[C@]12C)n1nc2ccccc2n1` [Compound 61, (S)-2-(2H-benzo[d][1,2,3]triazol-2-yl)-1-((3R,5R,8R,9S,10S,13S,14S, 17S)-3-hydroxy-3,10,13-trimethylhexadecahydro-1H-cyclopenta[a]phenanthren-17-yl)propan-1-one], 100 to 500 nM.

In the case of `C[C@@H](C(=O)[C@H]1CC[C@H]2[C@@H]3CC[C@@H]4C[C@](C)(O)CC[C@]4(C)[C@H]3CC[C@]12C)n1nnc2ccccc21` [Compound 63, (S)-2-(1H-benzo[d][1,2,3]triazol-1-yl)-1-((3R,5R,8R,9S,10S,13S,14S,17S)-3-hydroxy-3,10,13-trimethylhexadecahydro-1H-cyclopenta[a]phenanthren-17-yl)propan-1-one], the half-inhibitory concentration (IC50) is 10 to 50 nM. The same measure, in the same setting: as for `C[C@H](C(=O)[C@H]1CC[C@H]2[C@@H]3CC[C@H]4C[C@](C)(O)CC[C@]4(C)[C@H]3CC[C@]12C)n1cc(C#N)cn1` [Compound 80, 1-((R)-1-((3R,5S,8R,9S,10S,13S,14S,17S)-3-hydroxy-3,10,13-trimethylhexadecahydro-1H-cyclopenta[a]phenanthren-17-yl)-1-oxopropan-2-yl)-1H-pyrazole-4-carbonitrile], the figure is 100 to 500 nM.

With `C[C@@H](C(=O)[C@H]1CC[C@H]2[C@@H]3CC[C@H]4C[C@](C)(O)CC[C@]4(C)[C@H]3CC[C@]12C)n1cc(C#N)cn1` [Compound 81, 1-((S)-1-((3R,5S,8R,9S,10S,13S,14S,17S)-3-hydroxy-3,10,13-trimethylhexadecahydro-1H-cyclopenta[a]phenanthren-17-yl)-1-oxopropan-2-yl)-1H-pyrazole-4-carbonitrile], the IC50 lay within 10 to 50 nM. Same read-out and setting: to `CN(C)C(=O)c1cnn(CC(=O)[C@H]2CC[C@H]3[C@@H]4CC[C@H]5C[C@](C)(O)CC[C@]5(C)[C@H]4CC[C@]23C)c1` [Compound 86] belongs below 10 nM; to `C[C@H](C(=O)[C@H]1CC[C@H]2[C@@H]3CC[C@H]4C[C@](C)(O)CC[C@]4(C)[C@H]3CC[C@]12C)n1nccn1` [Compound 90, (R)-1-((3R,5S,8R,9S,10S,13S,14S,17S)-3-hydroxy-3,10,13-trimethylhexadecahydro-1H-cyclopenta[a]phenanthren-17-yl)-2-(2H-1,2,3-triazol-2-yl)propan-1-one], above 500 nM; to `C[C@H](C(=O)[C@H]1CC[C@H]2[C@@H]3CC[C@H]4C[C@](C)(O)CC[C@]4(C)[C@H]3CC[C@]12C)n1ccnn1` [Compound 92, (R)-1-((3R,5S,8R,9S,10S,13S,14S,17S)-3-hydroxy-3,10,13-trimethylhexadecahydro-1H-cyclopenta[a]phenanthren-17-yl)-2-(1H-1,2,3-triazol-1-yl)propan-1-one], above 500 nM. Take `C[C@H](C(=O)[C@H]1CC[C@H]2[C@@H]3CC[C@H]4C[C@](C)(O)CC[C@]4(C)[C@H]3CC[C@]12C)n1nnc2ccccc21` [Compound 100, (R)-2-(1H-benzo[d][1,2,3]triazol-1-yl)-1-((3R,5S,8R,9S,10S,13S,14S,17S)-3-hydroxy-3,10,13-trimethylhexadecahydro-1H-cyclopenta[a]phenanthren-17-yl)propan-1-one]: the IC50 was above 500 nM. The same measure, in the same setting: to `CC(C)(C(=O)[C@H]1CC[C@H]2[C@@H]3CC[C@H]4C[C@](C)(O)CC[C@]4(C)[C@H]3CC[C@]12C)n1nnc2ccccc21` [Compound 102, 2-(1H-benzo[d][1,2,3]triazol-1-yl)-1-((3R,5S,8R,9S,10S,13S,14S,17S)-3-hydroxy-3,10,13-trimethylhexadecahydro-1H-cyclopenta[a]phenanthren-17-yl)-2-methylpropan-1-one] belongs above 500 nM; to `C[C@@]1(O)CC[C@@]2(C)[C@H](CC[C@@H]3[C@@H]2CC[C@]2(C)[C@@H](C(=O)Cn4nc5ccc(S(C)(=O)=O)cc5n4)CC[C@@H]32)C1` [Compound 104, 1-((3R,5R,8R,9S,10S,13S,14S,17S)-3-hydroxy-3,10,13-trimethylhexadecahydro-1H-cyclopenta[a]phenanthren-17-yl)-2-(5-(methylsulfonyl)-2H-benzo[d][1,2,3]triazol-2-yl)ethanone], below 10 nM. Same read-out and setting: to `CC(C(=O)[C@H]1CC[C@H]2[C@@H]3CC[C@H]4C[C@](C)(O)CC[C@]4(C)[C@H]3CC[C@]12C)N1CCOCC1` (stereo partly drawn) [Compound 155] belongs above 500 nM; to `C[C@@]1(O)CC[C@@]2(C)[C@@H](CC[C@@H]3[C@@H]2CC[C@]2(C)[C@@H](C(=O)Cn4nc5cccc(F)c5n4)CC[C@@H]32)C1` [Compound 246], below 10 nM; to `CSc1ccc2nnn(CC(=O)[C@H]3CC[C@H]4[C@@H]5CC[C@H]6C[C@](C)(O)CC[C@]6(C)[C@H]5CC[C@]34C)c2c1` [Compound 248], below 10 nM.

The next assay concerns the target α1β2γ2 GABAA receptors (Homo sapiens (Human), UniProt P14867+P47870). As to the kind of experiment: Patch clamp electrophysiology of recombinant α1β2γ2 GABAA receptors (Qpatch in Ltk cells). The class given is cell-based. Particulars: 10 μM test article, potentiation of GABA EC20 (2 μM) current. Here is the method: Cellular electrophysiology is used to measure the pharmacological properties of our GABAA receptor modulators in heterologous cell systems. […] LTK cells are stably transfected with the α1β2γ2 subunits of the GABA receptor and CHO cells are transiently transfected with the α4β3δ subunits via the Lipofecatamine method. Cells were passaged at a confluence of about 50-80% and then seeded onto 35 mm sterile culture dishes containing 2 ml culture complete medium without antibiotics or antimycotics. Confluent clusters of cells are electrically coupled (Pritchett et al., Science, 1988, 242, 1306-1308).
Whole cell currents were measured with HEKA EPC-10 amplifiers using PatchMaster software or by using the high throughput QPatch platform (Sophion). […] In some cases 0.005% cremophor was also added. Intracellular (pipette) solution contained: KCl 130 mM, MgCl2 1 mM, Mg-ATP 5 mM, HEPES 10 mM, EGTA 5 mM, pH 7.2. […] For manual patch clamp recordings, cell culture dishes were placed on the dish holder of the microscope and continuously perfused (1 ml/min) with bath solution. […] For experiments using the QPatch system, cells were transferred as suspension to the QPatch system in the bath solution and automated whole cell recordings were performed.
Cells were voltage clamped at a holding potential of −80 mV. […]
In general terms: In patch-clamp work, channel activity is measured electrically.
In the case of `C[C@@]1(O)CC[C@@]2(C)[C@@H](CC[C@@H]3[C@@H]2CC[C@]2(C)[C@@H](C(=O)Cn4nnc5ccc(Cl)c(F)c54)CC[C@@H]32)C1` [Compound 113], the “GABA (α1β2γ2) Qpatch in Ltk, % efficacy at 10 μM” value was “B (“B” >100-500)”.

The same assay, now with this note: 10 μM test article, potentiation of GABA EC20 (2 μM) current, read-out: GABA (α1β2γ2) Qpatch in Ltk, % efficacy at 10 μM.
Regarding `C[C@@]1(O)CC[C@@]2(C)[C@H](CC[C@@H]3[C@@H]2CC[C@]2(C)[C@@H](C(=O)Cn4nc5ccc(OC(F)(F)F)cc5n4)CC[C@@H]32)C1` [Compound 106], the Emax at 10 µM was in the range of 100 to 500%.
